In patent publication US20110195950A1, “Organic Compounds” (NOVARTIS AG, priority 2007, published 2011):

Experiments:
[1] = target: T1, alpha2 subunit of the GABA-A receptor together with a beta and a gamma subunit (Homo sapiens, UniProt P47869); assay: GABA-A receptor modulation, voltage-sensitive dye fluorescence assay (alpha2); type: cell-based; settings: transfected eukaryotic cell line; sub-maximal concentration of GABA; fluorescent signal of voltage-sensitive dye
T1 construct: expressed in transfected cells
T1 sequence (P47869 29-451): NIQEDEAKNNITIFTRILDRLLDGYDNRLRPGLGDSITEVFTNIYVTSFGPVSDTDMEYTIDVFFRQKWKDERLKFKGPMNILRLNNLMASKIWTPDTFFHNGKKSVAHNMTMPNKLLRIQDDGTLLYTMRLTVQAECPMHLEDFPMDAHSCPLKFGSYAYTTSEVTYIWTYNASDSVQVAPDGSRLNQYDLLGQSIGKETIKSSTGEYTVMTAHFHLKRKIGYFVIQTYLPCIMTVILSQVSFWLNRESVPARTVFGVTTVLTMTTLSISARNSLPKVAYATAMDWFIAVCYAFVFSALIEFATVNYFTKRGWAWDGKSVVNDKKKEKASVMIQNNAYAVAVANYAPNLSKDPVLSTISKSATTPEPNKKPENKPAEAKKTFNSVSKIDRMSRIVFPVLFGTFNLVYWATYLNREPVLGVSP
T1 sequence (P28472 26-473 partner): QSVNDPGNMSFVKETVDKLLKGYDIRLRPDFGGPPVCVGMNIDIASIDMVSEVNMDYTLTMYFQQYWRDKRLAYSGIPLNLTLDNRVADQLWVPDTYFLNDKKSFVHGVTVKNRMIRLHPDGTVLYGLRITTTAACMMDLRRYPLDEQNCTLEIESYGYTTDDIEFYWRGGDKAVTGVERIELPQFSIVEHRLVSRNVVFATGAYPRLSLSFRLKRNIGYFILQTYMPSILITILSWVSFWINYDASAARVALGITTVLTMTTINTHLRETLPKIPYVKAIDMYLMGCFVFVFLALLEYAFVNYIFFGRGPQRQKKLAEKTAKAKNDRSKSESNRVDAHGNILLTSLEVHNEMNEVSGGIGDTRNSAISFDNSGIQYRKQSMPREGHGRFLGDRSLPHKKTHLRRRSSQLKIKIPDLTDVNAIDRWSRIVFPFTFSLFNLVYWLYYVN
T1 sequence (P18507 40-467 partner limits assumed): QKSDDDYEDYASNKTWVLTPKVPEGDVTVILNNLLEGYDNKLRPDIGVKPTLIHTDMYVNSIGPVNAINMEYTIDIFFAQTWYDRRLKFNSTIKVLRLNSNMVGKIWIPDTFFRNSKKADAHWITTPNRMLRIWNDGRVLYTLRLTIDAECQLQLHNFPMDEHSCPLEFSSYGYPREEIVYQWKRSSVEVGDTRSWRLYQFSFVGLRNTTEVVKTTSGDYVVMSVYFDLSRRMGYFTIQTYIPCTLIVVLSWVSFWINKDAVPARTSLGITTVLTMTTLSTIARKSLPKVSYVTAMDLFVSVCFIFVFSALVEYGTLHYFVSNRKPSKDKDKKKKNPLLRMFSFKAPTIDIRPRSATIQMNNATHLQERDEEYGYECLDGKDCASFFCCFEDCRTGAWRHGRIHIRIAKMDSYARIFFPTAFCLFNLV
Excerpt: GABA-A receptor modulators show in functional assays a positive modulation of GABA-induced signals. This modulation can be determined in vitro, e.g., at recombinant GABA-A receptors expressed in a mammalian cell line, e.g. by measurement of GABA-A receptor induced changes of the trans-membrane voltage, when using a voltage-sensitive dye and a fluorescence detection system (Adkins, C. E., Pillai, G. V., Kerby, J., Bonnert, T. P., Haldon, C., Mckernan, R. M., Gonzalez, J. E., Oades, K., Whiting, P. J. & Simpson, P. B. [2001]. alpha4beta3delta GABA-A receptors characterized by fluorescence resonance energy transfer-derived measurements of membrane potential. J. Biol. Chem., 276, 38934-38939). In this assay, a modulator compound is pre-applied at different concentrations ranging from 0.1 nM to 10 μM to cells expressing GABA-A receptors and loaded with the voltage-sensitive dye, before, or at the same time as, a sub-maximal concentration of GABA (in the range of from 0.1 to 10 μM) is applied to the cells. The fluorescent signal is correlated with the degree of GABA-A receptor channel opening. This allows the quantification of effects induced by the modulator in a functional manner. By expression of different GABA-A receptor subunit combinations, the differential efficacy of a modulator at different GABA-A receptor variants can be tested. […]

[2] = target: T2, alpha1 subunit of the GABA-A receptor together with a beta and a gamma subunit (Homo sapiens, UniProt P14867); assay: GABA-A receptor modulation, voltage-sensitive dye fluorescence assay (alpha1); type: cell-based; settings: transfected eukaryotic cell line; sub-maximal concentration of GABA; fluorescent signal of voltage-sensitive dye
T2 construct: expressed in transfected cells
T2 sequence (P14867 28-456): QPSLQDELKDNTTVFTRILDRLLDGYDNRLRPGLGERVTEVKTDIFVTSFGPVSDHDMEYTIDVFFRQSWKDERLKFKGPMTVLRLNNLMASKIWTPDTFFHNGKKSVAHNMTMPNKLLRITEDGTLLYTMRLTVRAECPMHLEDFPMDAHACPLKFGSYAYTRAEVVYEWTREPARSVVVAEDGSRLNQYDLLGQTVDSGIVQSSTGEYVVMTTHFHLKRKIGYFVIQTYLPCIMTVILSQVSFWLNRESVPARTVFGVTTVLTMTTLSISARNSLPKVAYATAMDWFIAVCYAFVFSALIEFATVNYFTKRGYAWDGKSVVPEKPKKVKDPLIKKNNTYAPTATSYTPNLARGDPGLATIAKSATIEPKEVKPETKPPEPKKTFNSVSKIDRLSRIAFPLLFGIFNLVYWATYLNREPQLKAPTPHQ
T2 sequence (P47870 25-512 partner limits assumed): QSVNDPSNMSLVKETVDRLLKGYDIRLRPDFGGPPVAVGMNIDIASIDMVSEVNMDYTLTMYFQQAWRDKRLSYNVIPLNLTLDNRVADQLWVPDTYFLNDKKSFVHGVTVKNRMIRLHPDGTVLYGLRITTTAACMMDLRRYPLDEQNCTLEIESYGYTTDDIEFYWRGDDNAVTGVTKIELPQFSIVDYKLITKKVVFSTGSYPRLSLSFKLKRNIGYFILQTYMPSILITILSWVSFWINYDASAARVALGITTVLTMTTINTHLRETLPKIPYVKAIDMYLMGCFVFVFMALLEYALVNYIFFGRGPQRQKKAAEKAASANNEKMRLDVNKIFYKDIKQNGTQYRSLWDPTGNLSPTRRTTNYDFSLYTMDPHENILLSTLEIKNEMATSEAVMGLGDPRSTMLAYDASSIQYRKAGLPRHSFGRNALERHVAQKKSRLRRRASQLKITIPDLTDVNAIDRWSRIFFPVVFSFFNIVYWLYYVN
T2 sequence (P18507 40-467 partner limits assumed): T1 sequence (P18507 40-467 partner limits assumed)

Clc1ccc(-n2nc3c4c(ncc3c2OCc2ccccc2Cl)CCCC4)cc1 [Example 1, 3-(2-Chloro-benzyloxy)-2-(4-chloro-phenyl)-6,7,8,9-tetrahydro-2H-pyrazolo[4,3-c]quinoline]
modulation of the GABA-induced response, alpha2 subunit [1]: 140%
modulation of the GABA-induced response, alpha1 subunit [2]: 37%
